Test results: US20250109127A1, “METHODS OF USE OF PHENOXYPROPYLAMINE COMPOUNDS TO TREAT DEPRESSION” (Minerva Neurosciences, Inc., priority 2013, published 2025)
Values joined by “and” are separate entries in the source; they are usually repeats but may differ in a detail not shown here. Identical values can stand only once. Counter-ions that a name gives are not always drawn.

Test system: norepinephrin release in the rat prefrontal cortex
Experiment: Microdialysis: norepinephrine release in prefrontal cortex after I.P. administration
Type: in vivo
Conditions: for NOREPINEPHRIN in dialysate, individual animals / NOREPINEPHRIN in dialysate, MEAN: SON-117 0.1 mg/kg I.P.; for NOREPINEPHRIN in dialysate, individual animals: hydrochloride, 0.1 mg/kg; for NOREPINEPHRIN (% of respective basal) MEAN / NE concentrations in prefrontal cortex, significant slight increase: SON-117 0.3 mg/kg I.P.; for NOREPINEPHRIN (% of respective basal) MEAN: n = 8
Procedure: The aim of the study was to evaluate, using microdialysis, the effects of an intraperitoneal (I.P.) administration in rats of three different doses of SON-117 on dopamine and its metabolites, serotonin and its metabolite (5-HIAA), and norepinephrine levels in prefrontal cortex.
Thirty-two adult male Wistar rats were used for the whole study (4 groups of eight animals planned for the study, Table 1).
Surgery was performed on rats weighing about 300 g at the beginning of the experiments. Rats were anaesthetized with Ketamine (50 mg/kg) & Xylazine (15 mg/kg) by intramuscular administration. The animals were placed in a stereotaxic apparatus in the flat-skull position at a constant setting of −3.3 mm between ear bars and the incisor bar. The animals were treated with a local anesthesic (xylocaine 1%, Astra Zeneca) and an analgesic (Temgesic, from Schering Plough, 0.05 mg/kg, s.c.). A rostrocaudal midline incision was made with a lancet to expose the dorsal skull surface. The “stereotaxic zero” was defined by the Bregma in accordance with Paxinos and Watson's atlas (1986). A hole was drilled in the skull with a drill and the meninges were pierced with a sterile needle to implant a CMA12 guide cannula which later received the dialysis probe.
Coordinates used for implanting guide cannula in prefrontal cortex from Bregma were anteroposterior 3.7 mm, mediolateral 0.8 mm, and dorsoventral −2 mm (top of the probe was at −5 mm). The guide cannula was fixed to the skull with two stainless steel screws (1.88 mm outside diameter) anchored. An application of dental cement was added. A plastic collar allowed each animal to be tethered to a Swivel assembly of the CMA 120 awake animal system. Following surgery, rats were kept in individual cages and allowed to recover for a minimum of 3-5 days before the experimentation. The rats were handled and put in plastic bowl for 10 min at least every day to habituate the animals to their new environment for the dialysis. An I.P. administration with saline was also performed every day.
Dialysis probes (CMA12/3 mm, membrane, 20 kD cut-off, Carnegie Medicine, Stockholm, Sweden), were carefully washed before inserting into the guide cannula. The wash was performed with the artificial cerebrospinal fluid (aCSF) medium (NaCl 147 mM, KCl 2.7 mM, CaCl2 1.2 mM, MgCl2 0.85 mM) at room temperature. The dialysis system was then equilibrated at 20° C. at a perfusion rate of 1 μl/min with a Carnegie pump (CMA100). All catheters (FEP tubing, internal volume of 1.2 μl/10 cm, and tubing adaptors) used for microdialysis were treated in the same conditions.
The probes duly prepared were inserted into the guide cannula and the CMA120 Swivel assembly secured to the animal using a plastic collar. Flow through the dialysis probe with aCSF was maintained at a rate of 1 μl/min during the whole experimentation. The first four fractions (corresponding to 2 hours) were discarded to avoid the effects of parenchymal disturbance and to ensure that an approximate steady-state level was reached. Fractions were then collected over a period of 8.5 h during which time the animals remained quiet. The dialysates were automatically collected with an autosampler (microfraction collector CMA 140, Carnegie Medicin) and stored at −80° C. until analysis. […] Perfusion was then maintained for 7 hours with aCSF. The dialysates (30 μl) were collected into 300 μl vials, transferred into dry ice and then kept frozen (−80° C.) until analysis. Frozen samples were shipped to a partner for analysis. At the end of the microdialysis study, a PBS with colored ink was perfused through the probe in order to visualize the dialyzed area.
Catecholamine assay: Concentrations of dopamine, DOPAC, HVA, 5-HIAA, 5-HT, and norepinephrin were determined for each sample by HPLC coupled with electrochemical detection. […]

Cc1nnc(-c2cc3c(OC[C@@H](O)CN4CCC(c5ccc(Cl)c(Cl)c5)CC4)cccc3o2)o1 [SON-117, (S)-1-(4-(3,4-dichlorophenyl)piperidino)-3-(2-(5-methyl-1,3,4-oxadiazol-2-yl)benzo(b)furan-4-yloxy)-2-propanol hydrochloride]
NOREPINEPHRIN in dialysate, individual animals (T1 h 30-T2 h): 62.36 % of respective basal and 99.69 % of respective basal and 70.34 % of respective basal and 106.16 % of respective basal and 81.71 % of respective basal and 48.44 % of respective basal and 107.26 % of respective basal and 74.26 % of respective basal
NOREPINEPHRIN in dialysate, MEAN (T1 h-T1 h 30): 91.81 % of respective basal
NOREPINEPHRIN in dialysate, individual animals (T1 h-T1 h 30): 76.18 % of respective basal and 103.4 % of respective basal and 76.89 % of respective basal and 121.08 % of respective basal and 91.95 % of respective basal and 79.30 % of respective basal and 109.47 % of respective basal and 76.21 % of respective basal
NOREPINEPHRIN in dialysate, MEAN (T2 h 30-T3 h): 79.52 % of respective basal
NOREPINEPHRIN in dialysate, individual animals (T2 h 30-T3 h): 73.33 % of respective basal and 70.54 % of respective basal and 58.97 % of respective basal and 74.27 % of respective basal and 104.33 % of respective basal and 81.47 % of respective basal and 116.2 % of respective basal and 57.05 % of respective basal
NOREPINEPHRIN in dialysate, MEAN (T2 h-T2 h 30): 78.83 % of respective basal
NOREPINEPHRIN in dialysate, individual animals (T2 h-T2 h 30): 66.69 % of respective basal and 98.72 % of respective basal and 65.78 % of respective basal and 70.31 % of respective basal and 92.44 % of respective basal and 49.48 % of respective basal and 109.29 % of respective basal and 77.91 % of respective basal
NOREPINEPHRIN in dialysate, MEAN (T3 h 30-T4 h): 86.32 % of respective basal
NOREPINEPHRIN in dialysate, individual animals (T3 h 30-T4 h): 91.02 % of respective basal and 105.19 % of respective basal and 59.70 % of respective basal and 76.69 % of respective basal and 123.13 % of respective basal and 96.82 % of respective basal and 105.05 % of respective basal and 32.98 % of respective basal
NOREPINEPHRIN in dialysate, MEAN (T3 h-T3 h 30): 86.82 % of respective basal
NOREPINEPHRIN in dialysate, individual animals (T3 h-T3 h 30): 152.99 % of respective basal and 92.11 % of respective basal and 58.83 % of respective basal and 77.12 % of respective basal and 91.45 % of respective basal and 56.94 % of respective basal and 113.71 % of respective basal and 51.43 % of respective basal
NOREPINEPHRIN in dialysate, MEAN (T4 h 30-T5 h): 109.54 % of respective basal
NOREPINEPHRIN in dialysate, individual animals (T4 h 30-T5 h): 204.20 % of respective basal and 144.74 % of respective basal and 38.63 % of respective basal and 124.67 % of respective basal and 96.8 % of respective basal and 102.84 % of respective basal and 104.62 % of respective basal and 59.86 % of respective basal
NOREPINEPHRIN in dialysate, MEAN (T4 h-T4 h 30): 111.29 % of respective basal
NOREPINEPHRIN in dialysate, individual animals (T4 h-T4 h 30): 220.91 % of respective basal and 88.73 % of respective basal and 75.17 % of respective basal and 90.11 % of respective basal and 112.61 % of respective basal and 91.91 % of respective basal and 116.00 % of respective basal and 94.90 % of respective basal
NOREPINEPHRIN in dialysate, MEAN (T5 h 30-T6 h): 93.44 % of respective basal
NOREPINEPHRIN in dialysate, individual animals (T5 h 30-T6 h): 159.66 % of respective basal and 111.49 % of respective basal and 76.32 % of respective basal and 79.52 % of respective basal and 94.09 % of respective basal and 72.17 % of respective basal and 101.35 % of respective basal and 52.95 % of respective basal
NOREPINEPHRIN in dialysate, MEAN (T5 h-T5 h 30): 94.69 % of respective basal
NOREPINEPHRIN in dialysate, individual animals (T5 h-T5 h 30): 188.91 % of respective basal and 96.57 % of respective basal and 69.39 % of respective basal and 78.76 % of respective basal and 94.15 % of respective basal and 68.42 % of respective basal and 102.42 % of respective basal and 58.91 % of respective basal
NOREPINEPHRIN in dialysate, MEAN (T6 h 30-T7 h): 117.60 % of respective basal
NOREPINEPHRIN in dialysate, MEAN (T6 h-T6 h 30): 89.68 % of respective basal
NOREPINEPHRIN in dialysate, individual animals (T6 h-T6 h 30): 196.16 % of respective basal and 73.01 % of respective basal and 27.50 % of respective basal and 79.85 % of respective basal and 96.77 % of respective basal and 85.56 % of respective basal
NOREPINEPHRIN in dialysate, MEAN (T-30 min-T0 (pre-dose)): 91.33 % of respective basal
NOREPINEPHRIN in dialysate, MEAN (T-1 h 30-T-1 h (pre-dose)): 109.41 % of respective basal
NOREPINEPHRIN in dialysate, MEAN (T-1 h-T-30 min (pre-dose)): 99.26 % of respective basal
levels of NE compared to the citalopram treated group (two-way ANOVA, significant) (SON-117 0.1 mg/kg vs citalopram 10 mg/kg, at 4.5 h and 7 h): higher
NOREPINEPHRIN (% of respective basal) MEAN (T0-T30 min): 109.06 % of respective basal
NOREPINEPHRIN (% of respective basal) MEAN (T30-T1 h): 104.15 % of respective basal
NOREPINEPHRIN (% of respective basal) MEAN (T1 h 30-T2 h): 95.77 % of respective basal
NOREPINEPHRIN (% of respective basal) MEAN (T1 h-T1 h 30): 100.55 % of respective basal
NOREPINEPHRIN (% of respective basal) MEAN (T2 h 30-T3 h): 106.82 % of respective basal
NOREPINEPHRIN (% of respective basal) MEAN (T2 h-T2 h 30): 100.26 % of respective basal
NOREPINEPHRIN (% of respective basal) MEAN (T3 h 30-T4 h): 128.69 % of respective basal
NOREPINEPHRIN (% of respective basal) MEAN (T3 h-T3 h 30): 116.32 % of respective basal
NOREPINEPHRIN (% of respective basal) MEAN (T4 h 30-T5 h): 125.81 % of respective basal
NOREPINEPHRIN (% of respective basal) MEAN (T4 h-T4 h 30): 119.37 % of respective basal
NOREPINEPHRIN (% of respective basal) MEAN (T5 h 30-T6 h): 135.41 % of respective basal
NOREPINEPHRIN (% of respective basal) MEAN (T5 h-T5 h 30): 124.93 % of respective basal
NOREPINEPHRIN (% of respective basal) MEAN (T6 h 30-T7 h): 140.96 % of respective basal
NOREPINEPHRIN (% of respective basal) MEAN (T6 h-T6 h 30): 137.68 % of respective basal
NOREPINEPHRIN (% of respective basal) MEAN (T-30 min-T0 (before administration)): 94.72 % of respective basal
NOREPINEPHRIN (% of respective basal) MEAN (T-1 h 30-T-1 h (before administration)): 105.37 % of respective basal
NOREPINEPHRIN (% of respective basal) MEAN (T-1 h-T-30 min (before administration)): 99.90 % of respective basal
NE concentrations in prefrontal cortex, significant slight increase (at 3.5 h): 117%
NE concentrations in prefrontal cortex, significant slight increase (from 4.5 h to 7 h): 128%
levels of NE compared to the citalopram treated group (two-way ANOVA, significant) (SON-117 0.3 mg/kg vs citalopram 10 mg/kg, at 3.5 h, 4 h, 4.5 h, 5 h, 5.5 h, 6 h and 7 h): higher
NE dialysate levels vs mean pre-administration value (SON-117 3 mg/kg IP): no statistically significant differences
levels of NE compared to the citalopram treated group (two-way ANOVA, significant) (SON-117 3 mg/kg vs citalopram 10 mg/kg, at 1.5 h and 3.5 h): higher
release of NE, maximum increase (SON-117, three doses tested, 7 h after administration): 129%
